Laboratory results as given in patent US5229265A, “Process for analyzing clastogenic agents” (Litron Laboratories, priority 1990, dated 1993).
Where “and” joins values, the source holds several entries; their conditions need not be identical. Equal entries are not always repeated. Entries after “also recorded” stand apart in the source; their conditions may differ.

Columns and labels:
Assay type in all cases: in vivo, mouse
[1] = test system: micronucleated cells in blood; test: Flow cytometric micronucleus assay, list mode data, blood of MMS treated mice, per 10,000 PCEs
Text: (§1) The fixation procedure can affect the permeability of a cell, cell morphology and the amount of undesirable autofluorescence that is associated with a cell preparation. Fixing procedures can cause changes in cell structure (that are reflected in the light scatter patterns) as well as changes in the distribution of the dye molecules within the cells (resulting in altered fluorescence emission patterns). Practioners of the art are unaware that fixing the cells at ultralow temperatures circumvents these fixation problems and provides cells that are suitable for subsequent staining and FCM analysis. Initially, the cells are centrifuged in order to separate them from serum components which could aggregate when added to cold fixative. To fix cells, a fresh blood sample (25 μl) containing an anticogulant is suspended in a solution containing 1% BSA and 10% dimethylsulfoxide (DMSO) in PBS (2 ml). The cells are centrifuged at 500×g for five minutes at room temperature. The supernatant is discarded and the pellet is resuspended in the small amount of residual supernatant that remains. This cell suspension is cooled to 0° C., the cells are diluted further with cold (-70° C.) absolute methanol (2 ml) and it is incubated at -70° C. for five minutes. The cell suspension is then immediately diluted with 1% BSA in PBS (10 ml) and is centrifuged at 500×g for 5 minutes. The low temperature treatment yields fixed cells with good morphology as viewed with either inverted phase contrast microscopy or fluorescent microscopy. […] Cells fixed in this way can be stored at 0° C. for weeks with no significant deterioration and are ready for staining and MN analysis.
(§2) It is known to practioners in the art that a variety of fluorescent dyes can be used to stain the DNA and RNA of cells. […] By choosing proper concentrations of these two dyes in conjunction with 363 nm excitation wavelength, it is possible to obtain a blue fluorescence signal from the Hoechst 33258 labeled micronucleii. A red fluorescence signal can be obtained from propidium iodide labeled PCEs. […]

[2] = test system: micronucleated cells in blood; test: Flow cytometric micronucleus assay, dual parameter data, MMS, Hoechst 33258 stain, per 500,000 cells
Text: as §1, §2

[3] = test system: micronucleated cells in blood; test: Flow cytometric micronucleus assay, dual parameter data, MMS, Hoechst 33258 & propidium iodide, per 500,000 cells; settings: MMS 100 μg/g body weight IP at 0 and 48 hours
Text: The fixation procedure can affect the permeability of a cell, cell morphology and the amount of undesirable autofluorescence that is associated with a cell preparation. Fixing procedures can cause changes in cell structure (that are reflected in the light scatter patterns) as well as changes in the distribution of the dye molecules within the cells (resulting in altered fluorescence emission patterns). Practioners of the art are unaware that fixing the cells at ultralow temperatures circumvents these fixation problems and provides cells that are suitable for subsequent staining and FCM analysis. […] Cells fixed in this way can be stored at 0° C. for weeks with no significant deterioration and are ready for staining and MN analysis.
When two dyes are used for simultaneous micronucleus and PCE discrimination, the cell suspension is prepared as follows: The Hoechst 33258 working solution described above is prepared and is filtered through an 0.2 micron Acro-disk (Gilman Sciences). […] When blood from a malaria (P. berghei) infected mouse was fixed and stained by this procedure, the bivariate pattern shown in FIG. 1B resulted, in which a stronger red fluorescence signal was obtained. […] The pH of the stained solution is important for good fluorescence emission profiles and resolution of the different cell populations. […]

[4] = MMS 100 μg/g body weight IP at 0 and 48 hours, Hoechst 33258

SMILES: COS(C)(=O)=O [MMS, methyl methanesulfonate]
- Experimental (A96) (MN96 hr) ([1]; MMS 100 μg/g body weight IP at 0 and 48 hours, 96 hr blood, list mode): 432 MNs/10,000 PCEs and 546 MNs/10,000 PCEs and 470 MNs/10,000 PCEs and 523 MNs/10,000 PCEs and 580 MNs/10,000 PCEs
- Δ (A96 - T96), change in number of MNs ([1]; MMS 100 μg/g body weight IP at 0 and 48 hours, normalized with K, list mode): 293 MNs/10,000 PCEs and 342 MNs/10,000 PCEs and 328 MNs/10,000 PCEs and 307 MNs/10,000 PCEs and 374 MNs/10,000 PCEs and 329 ± 32 MNs/10,000 PCEs and 329±28 MNs/10,000 PCEs
- clastogenic activity ([1]; MMS 100 μg/g body weight IP at t=0 and t=48 hours): MMS exhibited clastogenic activity
- Mns (96 hr) [2, 4]: 1654 MNs per 500,000 cells and 1424 MNs per 500,000 cells and 1360 MNs per 500,000 cells and 1662 MNs per 500,000 cells
- Δ (T96 - T0), change in MNs [2, 4]: 713 MNs per 500,000 cells and 620 MNs per 500,000 cells and 512 MNs per 500,000 cells and 540 MNs per 500,000 cells and 596 ± 90 MNs per 500,000 cells
- change (Δ) in MNs versus control mice ([2]; MMS 100 μg/g body weight at 0 and 48 hours, 96 hr blood): significantly higher than the Δ values for the control mice; also recorded: increase in the number of MNs in the analysis area relative to the initial blood
- Mns (96 hr) [3]: 1416 MNs per 500,000 cells and 1394 MNs per 500,000 cells and 1282 MNs per 500,000 cells and 1535 MNs per 500,000 cells
- ΔMns (T96 - T0) [3]: 535 MNs per 500,000 cells and 563 MNs per 500,000 cells and 657 MNs per 500,000 cells and 399 MNs per 500,000 cells and 520 MNs per 500,000 cells and 535 ± 107 MNs per 500,000 cells
